Laboratory results: paper PMC3961306, “Comparison of the Cancer Gene Targeting and Biochemical Selectivities of All Targeted Kinase Inhibitors Approved for Clinical Use” (PLoS ONE, 2014)
Read-outs that look alike come from different tables or passages of the source.

Key:
Experiment in all cases: Kinase profiling in a biochemical assay panel (mobility shift assays and ELISA), %-inhibition at 1 μM; selectivity entropy
[1] = molecular target: panel of more than 300 wild-type and mutant kinases (313 kinase panel) (Homo sapiens, UniProt Q16288)
[2] = molecular target: T1, panel of more than 300 wild-type and mutant kinases (313 kinase panel) (Homo sapiens, UniProt P53778)
T1 sequence (P53778 1-367): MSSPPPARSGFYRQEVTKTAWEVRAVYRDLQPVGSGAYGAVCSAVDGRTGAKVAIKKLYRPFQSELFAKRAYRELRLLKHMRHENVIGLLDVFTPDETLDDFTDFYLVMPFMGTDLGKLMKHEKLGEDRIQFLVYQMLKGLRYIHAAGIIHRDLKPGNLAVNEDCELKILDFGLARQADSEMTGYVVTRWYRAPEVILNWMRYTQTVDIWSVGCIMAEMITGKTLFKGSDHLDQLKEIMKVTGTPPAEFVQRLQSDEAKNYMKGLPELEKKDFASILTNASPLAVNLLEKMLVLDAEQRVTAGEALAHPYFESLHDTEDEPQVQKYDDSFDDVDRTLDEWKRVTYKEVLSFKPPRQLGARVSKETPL

[3] = molecular target: panel of more than 300 wild-type and mutant kinases (313 kinase panel) (Homo sapiens, UniProt P16234, T674I)
[4] = molecular target: panel of more than 300 wild-type and mutant kinases (313 kinase panel) (Homo sapiens, UniProt Q13555)
[5] = molecular target: panel of more than 300 wild-type and mutant kinases (313 kinase panel) (Homo sapiens, UniProt Q13627)
[6] = molecular target: panel of more than 300 wild-type and mutant kinases (313 kinase panel) (Homo sapiens, UniProt Q16512)
[7] = molecular target: T2, panel of more than 300 wild-type and mutant kinases (313 kinase panel) (Homo sapiens, UniProt P45985)
T2 sequence (P45985 1-399): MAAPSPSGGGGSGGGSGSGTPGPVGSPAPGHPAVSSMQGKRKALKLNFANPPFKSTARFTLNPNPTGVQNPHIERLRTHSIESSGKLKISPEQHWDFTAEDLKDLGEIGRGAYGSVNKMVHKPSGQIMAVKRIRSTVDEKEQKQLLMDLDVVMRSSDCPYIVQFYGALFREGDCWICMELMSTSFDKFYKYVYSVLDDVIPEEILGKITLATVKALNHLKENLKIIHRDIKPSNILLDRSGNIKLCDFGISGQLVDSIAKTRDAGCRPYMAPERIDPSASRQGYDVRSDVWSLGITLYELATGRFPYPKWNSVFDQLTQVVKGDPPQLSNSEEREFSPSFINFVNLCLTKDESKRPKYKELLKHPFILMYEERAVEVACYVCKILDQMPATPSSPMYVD

[8] = molecular target: panel of more than 300 wild-type and mutant kinases (313 kinase panel) (Homo sapiens, UniProt P07949, G691S)
[9] = molecular target: T3, panel of more than 300 wild-type and mutant kinases (313 kinase panel) (Homo sapiens, UniProt Q9UHD2)
T3 sequence (Q9UHD2 1-729): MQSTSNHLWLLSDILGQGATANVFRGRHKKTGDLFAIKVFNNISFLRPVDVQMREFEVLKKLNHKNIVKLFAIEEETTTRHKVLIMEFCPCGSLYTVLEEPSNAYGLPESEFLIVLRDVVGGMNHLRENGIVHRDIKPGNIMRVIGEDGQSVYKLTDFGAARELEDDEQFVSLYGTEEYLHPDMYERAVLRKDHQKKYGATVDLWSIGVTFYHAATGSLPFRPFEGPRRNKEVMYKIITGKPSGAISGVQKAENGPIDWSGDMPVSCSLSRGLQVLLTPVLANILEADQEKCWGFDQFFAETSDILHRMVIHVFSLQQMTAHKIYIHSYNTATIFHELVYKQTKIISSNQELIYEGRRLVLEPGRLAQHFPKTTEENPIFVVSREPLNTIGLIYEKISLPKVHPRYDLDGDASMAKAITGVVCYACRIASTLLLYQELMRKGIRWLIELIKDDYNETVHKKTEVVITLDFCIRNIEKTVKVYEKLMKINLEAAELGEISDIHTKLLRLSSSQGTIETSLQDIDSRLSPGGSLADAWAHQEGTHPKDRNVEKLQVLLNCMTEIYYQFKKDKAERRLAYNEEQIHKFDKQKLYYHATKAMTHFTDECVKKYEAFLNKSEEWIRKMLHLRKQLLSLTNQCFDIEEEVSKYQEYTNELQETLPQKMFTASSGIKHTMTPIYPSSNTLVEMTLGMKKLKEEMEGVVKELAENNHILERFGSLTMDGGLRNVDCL

[10] = molecular target: panel of more than 300 wild-type and mutant kinases (313 kinase panel) (Homo sapiens, UniProt P51451)
[11] = molecular target: panel of more than 300 wild-type and mutant kinases (313 kinase panel) (Homo sapiens, UniProt P07949, M918T)
[12] = molecular target: panel of more than 300 wild-type and mutant kinases (313 kinase panel) (Homo sapiens, UniProt P19784)
[13] = kinase DYRK1A, compound at 1 μM
[14] = kinase MAP2K4, compound at 1 μM

Compound | %-inhibition of TRKC ([1]; kinase TRKC, 1 μM) [%] | %-inhibition of p38γ ([2]; kinase p38γ, 1 μM) [%] | %-inhibition of PDGFRα(T674I) ([3]; kinase PDGFRα(T674I), 1 μM) [%] | %-inhibition, CaMK2γ ([4]; kinase CaMK2γ, 1 μM compound) [%] | %-inhibition of DYRK1A [5, 13] [%] | %-inhibition of PKN1 ([6]; kinase PKN1, 1 μM) [%] | %-inhibition of MAP2K4 [7, 14] [%] | %-inhibition of RET(G691S) ([8]; kinase RET(G691S), 1 μM) [%] | %-inhibition of TBK1 ([9]; kinase TBK1, 1 μM) [%] | %-inhibition, BLK ([10]; kinase BLK, 1 μM compound) [%] | %-inhibition of RET(M918T) ([11]; kinase RET(M918T), 1 μM) [%] | %-inhibition of RET(M918T) ([11]; 1 µM) [%] | %-inhibition, CK2α2/β ([12]; kinase CK2α2/β, 1 μM compound) [%] | also measured
CC(C)(C)c1nc(-c2cccc(NS(=O)(=O)c3c(F)cccc3F)c2F)c(-c2ccnc(N)n2)s1 [dabrafenib] | 81 | 0.311 | 18 | -5.47 | 16 | -2.84 | -3 | 53 | -1.15 | 80 | 37 |  |  | 
C#Cc1cccc(Nc2ncnc3cc(OCCOC)c(OCCOC)cc23)c1 [erlotinib] |  |  |  |  |  |  |  |  |  |  |  | 67 |  | %-inhibition of TRKC ([1]; 1 µM): 13%; %-inhibition of p38γ ([2]; 1 µM): 4.5%; %-inhibition, CaMK2γ ([4]; 1 µM): 3%; %-inhibition of DYRK1A [5]: 20%; %-inhibition, CK2α2/β ([12]; 1 µM): -5.48%; %-inhibition of PKN1 ([6]; 1 µM): 2.76%; %-inhibition of MAP2K4 ([7]; 1 µM): -6%; %-inhibition of RET(G691S) ([8]; 1 µM): 73%; %-inhibition of TBK1 ([9]; 1 µM): 26%; %-inhibition, BLK ([10]; 1 µM): 31%
CO[C@H]1C[C@@H]2CC[C@@H](C)[C@@](O)(O2)C(=O)C(=O)N2CCCC[C@H]2C(=O)O[C@H]([C@H](C)C[C@@H]2CC[C@@H](OCCO)[C@H](OC)C2)CC(=O)[C@H](C)/C=C(\C)[C@@H](O)[C@@H](OC)C(=O)[C@H](C)C[C@H](C)/C=C/C=C/C=C/1C [everolimus] | -5 | -7 | 0.248 | -16 | -11 | 2.6 | 1.55 | -4.43 | -5 | -7 | -4.61 |  | -1.28 | 
CS(=O)(=O)CCNCc1ccc(-c2ccc3ncnc(Nc4ccc(OCc5cccc(F)c5)c(Cl)c4)c3c2)o1 [lapatinib] | 4 | -1.19 |  |  |  | 0 | 0.409 |  | -14 | 24 |  | -4.37 | -3.45 | %-inhibition of PDGFRα(T674I) ([3]; 1 µM): 18%; %-inhibition, CaMK2γ ([4]; 1 µM): 1.73%; %-inhibition of DYRK1A [5]: 3.25%; %-inhibition of RET(G691S) ([8]; 1 µM): -3%
CNC(=O)c1cc(Oc2ccc(NC(=O)Nc3ccc(Cl)c(C(F)(F)F)c3)c(F)c2)ccn1 [regorafenib] | 93 | 16 | 92 | -13 | -15 | 0.804 | 0.434 | 103 | -2.13 | 25 |  | 102 | -5.46 | 
CO[C@H]1C[C@@H]2CC[C@@H](C)[C@@](O)(O2)C(=O)C(=O)N2CCCC[C@H]2C(=O)O[C@H]([C@H](C)C[C@@H]2CC[C@@H](OC(=O)C(C)(CO)CO)[C@H](OC)C2)CC(=O)[C@H](C)/C=C(\C)[C@@H](O)[C@@H](OC)C(=O)[C@H](C)C[C@H](C)/C=C/C=C/C=C/1C [temsirolimus] | -6.53 | -5.48 | -2.73 | -14 | -3 | 0.71 | 8.51 | -6 | -2.23 | -12 | -3.41 |  | -5.28 | 
CCCS(=O)(=O)Nc1ccc(F)c(C(=O)c2c[nH]c3ncc(-c4ccc(Cl)cc4)cc23)c1F [vemurafenib] | 5 | -0.299 | 1.49 | -10 | -18 | -0.378 |  | 23 | -0.81 | 52 | 11 |  | -6.56 | 
